Values of other authors in patent US20040186131A1, “Method of preventing or treating atherosclerosis or restenosis” (priority 2002, published 2004).

Tested on: CMV infection of rats
Settings: DHPG prophylaxis

## Nc1nc(O)c2ncn(COC(CO)CO)c2n1 [Ganciclovir]
  prevention of atherosclerosis resulting from CMV infection: prevent atherosclerosis
